Tests used:
[1] = system: subjects with no apparent dysfunction in cognitive ability or movement/balance; test: Balancing ability (eyes closed, non-dominant foot lifted); assay type: in vivo, human
Procedure: Due to reported improvement in balance on treatment we measured balancing ability at the end of the treatment period and at the end of the washout period. This assessment required the subject to close their eyes and lift their non-dominant foot around 6 inches off the ground. The subject was then timed to see how long they could remain upright and without significant wobbles. This was repeated three times, and the values averaged. […] This assessment required the subject to close their eyes and lift their non-dominant foot around 6 inches off the ground. The subject was then timed to see how long they could remain upright and without significant wobbles. This was repeated three times, and the values averaged. We measured balancing ability at the end of the treatment period and at the end of the washout period. This assessment required the subject to close their eyes and lift their non-dominant foot around 6 inches off the ground. The subject was then timed to see how long they could remain upright and without significant wobbles. This was repeated three times, and the values averaged.

[2] = system: Sandhoff disease model, Hexb−/− mouse; test: Step cycle time; assay type: in vivo; details: Sandhoff mice, 12 weeks of age
Procedure: This study made use of a mouse model of Sandhoff disease, the Hexb^−/− mouse, as descrbed in Jeyakumar et al. (Jeyakumar, M. et al. (1999) Proc. Natl. Acad. Sci. USA 96: 6388-6393). Step cycle is the length of time taken during locomotion by a limb from the time it leaves the ground until it leaves the ground on the next occasion. Step cycle time was assessed at 12 weeks of age in untreated and acetyl-leucine treated Sandhoff model mice. Acetyl-leucine treatment constituted 0.1 g/kg body weight acetyl-leucine from 3 weeks of age.

[3] = system: person with progressive postural imbalance; test: Case study Example 22, get up and go test and cognition; assay type: in vivo, human
Procedure: Treatment with acetyl-DL-leucine (Tanganil®) was started because the patient was suffering from imbalance and gait disorder. They initiated a one-month course comprising nine 500 mg tablets taken three times a day (TID) with meals, i.e., a total daily dosage of 4.5 g.
The ability of the subject to move was measured in a home setting “get up and go test”. This test involved the subject rising unaided from their chair and walking the length of their living area to their kitchen. This was timed over seven consecutive days prior to treatment, and over the next seven consecutive days once treatment with Tanganil® had started.
The same subject then initiated another month of treatment, i.e. a further one-month course comprising nine 500 mg capsules taken TID with meals (total daily dosage of 4.5 g).

[4] = system: Mucolipidosis Type II (MLII) patient fibroblasts; test: Lysosomal volume via LysoTracker; assay type: cell-based, human; details: 1 mM, 6 days
[5] = system: AB variant of Tay-Sachs disease patient fibroblasts; test: Glycosphingolipid (GSL) levels via HPLC; assay type: cell-based, human; details: 1 mM for 6 days
[6] = system: patients with Niemann-Pick Type C (NPC); details: one-month study, 12 NPC patients (Bremova 2015); cited from earlier work
[7] = system: person with postural imbalance and gait disorder; test: Case study Example 24; assay type: in vivo, human
Procedure: The patient was treated with Tanganil® 500 mg in 3 separate doses throughout the day—1 g upon waking, 1 g prior to lunch and 1 g prior to the evening meal for one week, followed by 2 g upon waking, 1.5 g prior to lunch and 1.5 g prior to the evening meal.

[8] = system: amyloid precursor protein C-terminal fragments (APP-CTFs); test: APP-CTF levels relative to total APP in the cerebellum; assay type: in vivo, mouse; details: NPC1−/− mice, 0.1 g/kg body weight daily from 3 weeks, sacrificed at 8 weeks
Procedure: The Niemann-Pick Disease Type C (NPC) mouse model shares a number of pathological features with Alzheimer's disease (AD) as described herein. […] Mice were sacrificed at 8 weeks of age. Levels of amyloid precursor protein C-terminal fragments (APP-CTFs) were evaluated relative to total amyloid precursor protein (APP) levels in the cerebellum for wild type, untreated wild type NPC1^−/− mice, and AL-treated wild type NPC1^−/− mice. Levels of microtubule-associated protein 1A/1B-light chain 3-phosphatidylethanolamine conjugate (LC3-II) were also evaluated relative to levels of tubulin loading control for wild type, untreated wild type NPC1^−/− mice, and AL-treated wild type NPC1^−/− mice.

[9] = system: NPC patients; test: Clinical severity score (CSS) and annual severity increment score (ASIS) in ten NPC patients; assay type: in vivo, human; details: 4.5 g/day
From the text: An NPC patient's severity may be quantified by assigning a clinical severity score (CSS), which assesses various parameters of the disease and gives each parameter a score out of 5 (higher score=greater severity). See Yanjanin et al., “Linear Clinical Progression, Independent of Age of Onset, in Niemann-Pick Disease, Type C,” Am J Med Genet Part B 153B:132-140. In an untreated patient, one can typically predict how the CSS will change over time in an individual, as disease progression appears to be linear. For example, if Patient A moves from a CSS of 8 to a CSS of 12 between month 0 and month 12, it can be predicted that by month 36, the patient will have a CSS of 20. The annual severity increment score (ASIS) quantities the annual rate of change in the CSS, calculated by dividing the CSS of a patient by the patient's age. […]
Ten NPC patients were administered acetyl-leucine at 4.5 g/day over long durations. A CSS was determined at baseline, and at various time points, for eye movement, ambulation, speech, swallow, fine motor skills, cognition, memory, and seizures. An overall CSS was calculated at baseline and at each such time point by adding the individual CSS values for each parameter (eye movement, ambulation, etc.).
The ASIS at baseline and each time point was calculated using each patient's CSS and age at the time of assessment. […]

[10] = system: fibroblasts from NPC patients; test: Relative lysosomal volume via LysoTracker; assay type: cell-based, human; details: 1 mM
Procedure: A fibroblast cell line from an NPC patient was treated for 3 days with N-acetyl-DL-leucine (1 mM) and relative lysosomal volume was quantified via LysoTracker, a fluorescent dye that accumulates in acidic organelles. Increased LysoTracker fluorescence is indicative of an increase in lysosomal size and/or number, and is a hallmark of NPC cells.

Structure (SMILES): CC(=O)NC(CC(C)C)C(=O)O (racemic) [acetyl-DL-leucine]
- Time subject remained balanced ([1]; person one, end of the washout period): 8 s
- Time subject remained balanced ([1]; person one, last day of the treatment period): 12 s
- Time subject remained balanced ([1]; person three, end of the washout period): 4.01 s
- Time subject remained balanced ([1]; person three, last day of the treatment period): 7.27 s
- Time subject remained balanced ([1]; person two, end of the washout period): 3.1 s
- Time subject remained balanced ([1]; person two, last day of the treatment period): 7.9 s
- Average step cycle time ([2]; p<0.001 vs untreated): significantly faster average step cycle times
- Hind step cycle time ([2]; p<0.01 vs untreated): significantly faster hind step cycle times
- Front step cycle time ([2]; p<0.05 vs untreated): significantly faster front step cycle times
- Cognitive function (noticed by family) ([3]; after 2-3 weeks of treatment): significant improvement in their cognitive function, spatial awareness and general demeanor
- Faster than pre-treatment, get up and go test ([3]; on treatment, 4.5 g daily): 25%
- Average time, get up and go test ([3]; once treatment had started, 4.5 g daily, 40±3 prior to treatment): 30 ± 2 s
- Side effects ([3]; over eighteen months, 4.5 g per day): no side effects
- Improvements on second treatment ([3]; second one-month course, 4.5 g daily): rapidly returned
- LysoTracker fluorescence vs untreated disease fibroblasts [4]: statistically significant reduction in LysoTracker fluorescence toward control level
- GSL levels [5]: trend towards decreased GSL levels
- ataxia symptoms [6]: symptomatic improvement of ataxia
- Tolerability ([7]; 3 g/day one week then 5 g/day): well tolerated
- Dizziness, imbalance, gait (feedback by spouse) ([7]; 22 days after beginning treatment): significant reduction of dizziness and imbalance, and significant improvement of gait
- APP-CTF levels relative to total APP, cerebellum [8]: lowering of APP-CTFs
- Change in ASIS during treatment relative to baseline [9]: all ten patients showed a reduction in ASIS
- Change in overall CSS over the course of the experiment [9]: none of the ten patients showed an overall increase in CSS
- LysoTracker fluorescence (lysosomal volume) ([10]; NPC patient of mild clinical severity): significant decrease in LysoTracker fluorescence
- LysoTracker fluorescence (lysosomal volume) ([10]; additional NPC patients of variable clinical severity, 72 hours): findings were replicated
